ChEMBL document CHEMBL5370594, “Novel Compounds for Preventing SARS-CoV-2 Viral Replication and Treating COVID-19” (ACS Med Chem Lett, 2023)

Biological target: Replicase polyprotein 1ab (Severe acute respiratory syndrome coronavirus 2, UniProt P0DTD1)
Test: Inhibition of full-length recombinant SARS-CoV-2 3CL protease expressed in Escherichia coli BL21 (DE3) using FAM- KTSAVLQSGFRKMEK-TAMRA as substrate pre-incubated for 1 hr with compound followed by substrate addition measured after 30 mins by FRET analysis

Compound	IC50
CC(C)(C)[C@H](NC(=O)C(F)(F)F)C(=O)N1C[C@H]2[C@@H]([C@H]1C(=O)NN(C[C@@H]1CCNC1=O)C(=O)CCl)C2(C)C	6 nM
CC[C@H](C)[C@H](NC(=O)C(F)(F)C(F)(F)F)C(=O)N1C[C@@H]2CCC[C@@H]2[C@H]1C(=O)NN(C[C@@H]1CCNC1=O)C(=O)[C@H](F)Cl	6 nM
CCC(CC)[C@H](NC(=O)C(F)(F)F)C(=O)N1C[C@H]2[C@@H]([C@H]1C(=O)NN(C[C@@H]1CCNC1=O)C(=O)[C@H](F)Cl)C2(C)C	7 nM
